From PubChem BioAssay (NCI)
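Exposure lasted 48 hours, with cells grown in 96-well plates and compounds tested at five concentrations. TGI marks complete inhibition of growth.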

How the values were obtained:
Test in all cases: NCI anticancer screen, dose series, 48 h
MALME-3M melanoma = test system: MALME-3M melanoma
SW-620 colon = test system: SW-620 colon
T-47D breast = test system: T-47D breast
LOX IMVI melanoma = test system: LOX IMVI melanoma
CCRF-CEM leukemia = test system: CCRF-CEM leukemia
SF-268 CNS = test system: SF-268 CNS
MDA-N = test system: MDA-N
BT-549 breast = test system: BT-549 breast
SN12C renal = test system: SN12C renal
HOP-92 NSCLC = test system: HOP-92 NSCLC
RXF 393 renal = test system: RXF 393 renal
IGROV1 ovarian = test system: IGROV1 ovarian
HCT-15 colon = test system: HCT-15 colon
KM12 colon = test system: KM12 colon
UO-31 renal = test system: UO-31 renal
DU-145 prostate = test system: DU-145 prostate
ACHN renal = test system: ACHN renal
HOP-62 NSCLC = test system: HOP-62 NSCLC
RPMI-8226 leukemia = test system: RPMI-8226 leukemia
OVCAR-5 ovarian = test system: OVCAR-5 ovarian
HT29 colon = test system: HT29 colon
TK-10 renal = test system: TK-10 renal
SK-MEL-28 melanoma = test system: SK-MEL-28 melanoma
OVCAR-4 ovarian = test system: OVCAR-4 ovarian
OVCAR-3 ovarian = test system: OVCAR-3 ovarian
HCC-2998 colon = test system: HCC-2998 colon
EKVX NSCLC = test system: EKVX NSCLC
NCI/ADR-RES ovarian = test system: NCI/ADR-RES ovarian
NCI-H460 lung = test system: NCI-H460 lung
SF-295 CNS = test system: SF-295 CNS
PC-3 prostate = test system: PC-3 prostate
MDA-MB-231 breast = test system: MDA-MB-231 breast
A498 renal = test system: A498 renal
786-0 renal = test system: 786-0 renal
MOLT-4 leukemia = test system: MOLT-4 leukemia
U251 CNS = test system: U251 CNS
NCI-H23 lung = test system: NCI-H23 lung
CAKI-1 renal = test system: CAKI-1 renal
NCI-H522 lung = test system: NCI-H522 lung
UACC-62 melanoma = test system: UACC-62 melanoma
A549 NSCLC = test system: A549 NSCLC
HS 578T breast = test system: HS 578T breast
SK-MEL-2 melanoma = test system: SK-MEL-2 melanoma
SF-539 CNS = test system: SF-539 CNS
UACC-257 melanoma = test system: UACC-257 melanoma
OVCAR-8 ovarian = test system: OVCAR-8 ovarian
M14 melanoma = test system: M14 melanoma
HL-60(TB) leukemia = test system: HL-60(TB) leukemia
NCI-H226 lung = test system: NCI-H226 lung
SK-OV-3 ovarian = test system: SK-OV-3 ovarian
MCF7 breast = test system: MCF7 breast
SK-MEL-5 melanoma = test system: SK-MEL-5 melanoma
MDA-MB-435 = test system: MDA-MB-435
COLO 205 colon = test system: COLO 205 colon
SNB-75 CNS = test system: SNB-75 CNS
SNB-19 CNS = test system: SNB-19 CNS
K-562 leukemia = test system: K-562 leukemia
HCT-116 colon = test system: HCT-116 colon
SR leukemia = test system: SR leukemia

Cc1cc(C)c2c(=N)c3ccccc3n(CCCCCCO)c2n1
TGI (MALME-3M melanoma): 5.95 µM | TGI (SW-620 colon): > 36.1 µM | TGI (T-47D breast): 12.1 µM | TGI (LOX IMVI melanoma): 5.17 µM | TGI (CCRF-CEM leukemia): 9.64 µM | TGI (SF-268 CNS): 13.9 µM | TGI (MDA-N): 7.42 µM | TGI (BT-549 breast): 23.7 µM | TGI (SN12C renal): 7.55 µM | TGI (HOP-92 NSCLC): 16 µM | TGI (RXF 393 renal): 14.2 µM | TGI (IGROV1 ovarian): 10.9 µM | TGI (HCT-15 colon): 9.69 µM | TGI (KM12 colon): 13.5 µM | TGI (UO-31 renal): 6.01 µM | TGI (DU-145 prostate): 25.3 µM | TGI (ACHN renal): 6.81 µM | TGI (HOP-62 NSCLC): 23.6 µM | TGI (RPMI-8226 leukemia): 4.29 µM | TGI (OVCAR-5 ovarian): 21.2 µM | TGI (HT29 colon): 3.93 µM | TGI (TK-10 renal): 17.9 µM | TGI (SK-MEL-28 melanoma): 33 µM | TGI (OVCAR-4 ovarian): 9.85 µM | TGI (OVCAR-3 ovarian): 25.9 µM | TGI (HCC-2998 colon): 7.07 µM | TGI (EKVX NSCLC): 6.33 µM | TGI (NCI/ADR-RES ovarian): 8.38 µM | TGI (NCI-H460 lung): 3.62 µM | TGI (SF-295 CNS): 11.9 µM | TGI (PC-3 prostate): 11.9 µM | TGI (MDA-MB-231 breast): 15.1 µM | TGI (A498 renal): 26.9 µM | TGI (786-0 renal): 9.53 µM | TGI (MOLT-4 leukemia): 17.6 µM | TGI (U251 CNS): 13.8 µM | TGI (NCI-H23 lung): 6.69 µM | TGI (CAKI-1 renal): 8.31 µM | TGI (NCI-H522 lung): 3.14 µM | TGI (UACC-62 melanoma): 8.89 µM | TGI (A549 NSCLC): 17.7 µM | TGI (HS 578T breast): 8.37 µM | TGI (SK-MEL-2 melanoma): 9.47 µM | TGI (SF-539 CNS): 9.48 µM | TGI (UACC-257 melanoma): 15.8 µM | TGI (OVCAR-8 ovarian): 5.49 µM | TGI (M14 melanoma): 16.6 µM | TGI (HL-60(TB) leukemia): 6.19 µM | TGI (NCI-H226 lung): 11.1 µM | TGI (SK-OV-3 ovarian): 18.5 µM | TGI (MCF7 breast): 8.56 µM | TGI (SK-MEL-5 melanoma): 8.16 µM | TGI (MDA-MB-435): 16.7 µM | TGI (COLO 205 colon): 2.84 µM | TGI (SNB-75 CNS): 5.78 µM | TGI (SNB-19 CNS): 18.9 µM

CCOC(=O)c1c(N2CCOCC2)[nH]c(=O)c(C(c2cccs2)c2c(O)c(C(=O)OCC)c(N3CCOCC3)[nH]c2=O)c1O
TGI (MALME-3M melanoma): > 100 µM | TGI (SW-620 colon): > 100 µM | TGI (T-47D breast): > 100 µM | TGI (LOX IMVI melanoma): > 100 µM | TGI (CCRF-CEM leukemia): > 100 µM | TGI (SF-268 CNS): > 100 µM | TGI (MDA-N): > 100 µM | TGI (BT-549 breast): > 100 µM | TGI (SN12C renal): > 100 µM | TGI (HOP-92 NSCLC): > 100 µM | TGI (RXF 393 renal): > 100 µM | TGI (HCT-15 colon): > 100 µM | TGI (KM12 colon): > 100 µM | TGI (UO-31 renal): > 100 µM | TGI (DU-145 prostate): > 100 µM | TGI (ACHN renal): > 100 µM | TGI (HOP-62 NSCLC): > 100 µM | TGI (RPMI-8226 leukemia): > 100 µM | TGI (OVCAR-5 ovarian): > 100 µM | TGI (HT29 colon): > 100 µM | TGI (TK-10 renal): > 100 µM | TGI (SK-MEL-28 melanoma): > 100 µM | TGI (K-562 leukemia): > 100 µM | TGI (OVCAR-4 ovarian): > 100 µM | TGI (OVCAR-3 ovarian): > 100 µM | TGI (HCC-2998 colon): > 100 µM | TGI (EKVX NSCLC): > 100 µM | TGI (NCI/ADR-RES ovarian): > 100 µM | TGI (NCI-H460 lung): > 100 µM | TGI (SF-295 CNS): > 100 µM | TGI (PC-3 prostate): > 100 µM | TGI (MDA-MB-231 breast): > 100 µM | TGI (A498 renal): > 100 µM | TGI (786-0 renal): > 100 µM | TGI (MOLT-4 leukemia): > 100 µM | TGI (U251 CNS): > 100 µM | TGI (NCI-H23 lung): > 100 µM | TGI (CAKI-1 renal): > 100 µM | TGI (NCI-H522 lung): > 100 µM | TGI (UACC-62 melanoma): > 100 µM | TGI (A549 NSCLC): > 100 µM | TGI (HS 578T breast): > 100 µM | TGI (HCT-116 colon): > 100 µM | TGI (SK-MEL-2 melanoma): > 100 µM | TGI (SF-539 CNS): > 100 µM | TGI (UACC-257 melanoma): > 100 µM | TGI (OVCAR-8 ovarian): > 100 µM | TGI (SR leukemia): > 100 µM | TGI (M14 melanoma): > 100 µM | TGI (NCI-H226 lung): > 100 µM | TGI (SK-OV-3 ovarian): > 100 µM | TGI (MCF7 breast): > 100 µM | TGI (SK-MEL-5 melanoma): > 100 µM | TGI (MDA-MB-435): > 100 µM | TGI (COLO 205 colon): > 100 µM | TGI (SNB-75 CNS): > 100 µM | TGI (SNB-19 CNS): > 100 µM

O=c1[nH]c2cc3cccnc3c(Cl)c2nc1CBr
TGI (MALME-3M melanoma): 65.5 µM | TGI (SW-620 colon): 32.5 µM | TGI (T-47D breast): 28.3 µM | TGI (LOX IMVI melanoma): 31.1 µM | TGI (CCRF-CEM leukemia): 31.1 µM | TGI (SF-268 CNS): 64.7 µM | TGI (MDA-N): 34.9 µM | TGI (BT-549 breast): 89.8 µM | TGI (SN12C renal): 27 µM | TGI (HOP-92 NSCLC): 35.2 µM | TGI (RXF 393 renal): 34.6 µM | TGI (IGROV1 ovarian): 12.3 µM | TGI (HCT-15 colon): 9.94 µM | TGI (KM12 colon): 33.3 µM | TGI (UO-31 renal): 23.6 µM | TGI (DU-145 prostate): 30.4 µM | TGI (ACHN renal): 20.3 µM | TGI (HOP-62 NSCLC): 29.4 µM | TGI (RPMI-8226 leukemia): 26.3 µM | TGI (OVCAR-5 ovarian): 35.9 µM | TGI (HT29 colon): 35.9 µM | TGI (TK-10 renal): 61.8 µM | TGI (K-562 leukemia): > 100 µM | TGI (OVCAR-4 ovarian): 34.2 µM | TGI (OVCAR-3 ovarian): 35.5 µM | TGI (EKVX NSCLC): 52.1 µM | TGI (NCI/ADR-RES ovarian): 53.3 µM | TGI (NCI-H460 lung): 39.7 µM | TGI (SF-295 CNS): 54.1 µM | TGI (PC-3 prostate): 37.4 µM | TGI (MDA-MB-231 breast): 34.4 µM | TGI (786-0 renal): 25.2 µM | TGI (MOLT-4 leukemia): > 100 µM | TGI (U251 CNS): 32.4 µM | TGI (NCI-H23 lung): 32.2 µM | TGI (CAKI-1 renal): 31.9 µM | TGI (NCI-H522 lung): 28.5 µM | TGI (UACC-62 melanoma): 25.2 µM | TGI (A549 NSCLC): 38.8 µM | TGI (HS 578T breast): 28.3 µM | TGI (HCT-116 colon): 25.8 µM | TGI (SF-539 CNS): 26.4 µM | TGI (UACC-257 melanoma): 54.9 µM | TGI (OVCAR-8 ovarian): 44.4 µM | TGI (SR leukemia): 73.3 µM | TGI (M14 melanoma): 27.8 µM | TGI (HL-60(TB) leukemia): 55.2 µM | TGI (NCI-H226 lung): 56.1 µM | TGI (SK-OV-3 ovarian): 65.5 µM | TGI (MCF7 breast): 29.2 µM | TGI (SK-MEL-5 melanoma): 35.6 µM | TGI (MDA-MB-435): 34.8 µM | TGI (COLO 205 colon): 26.8 µM | TGI (SNB-19 CNS): 19.7 µM
